In brackets after ≈: the same amount, converted by molar mass. Read-outs that look alike come from different tables or passages of the source.
What was measured:
[1] = from C=CCOC(=O)NC[C@@H]1C[C@H](N(C)C)[C@@H](OC(=O)OC)[C@H](O[C@H]([C@@H](C)C2=C(C)C(=O)OC(C)(C)O2)[C@@](C)(C[C@@H](C)CN[C@H](C)[C@H]2N(CCCCN=[N+]=[N-])C(=O)O[C@]2(C)[C@H](O)CC)OC)O1; ester bond; chlorobenzene; 1.0 mM; 150.0 °C; 16.0 h
P. aeruginosa = assay: Broth dilution MIC determination (CLSI) against P. aeruginosa strains; format: cell-based; conditions: for MIC: Pseudomonas aeruginosa
Procedure, shortened: (§1)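 Strains, including multidrug-resistant and macrolide-resistant ones, were exposed to macrolides in broth dilution per CLSI standards, and the lowest inhibiting concentration was recorded as MIC. Azithromycin and solithromycin were run alongside.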

H. influenzae = assay: Broth dilution MIC determination (CLSI) against H. influenzae strains; format: cell-based; conditions: for MIC: Haemophilus influenzae
Procedure, shortened: as §1

E. coli = assay: Broth dilution MIC determination (CLSI) against E. coli strains; format: cell-based; conditions: for MIC: Escherichia coli
Procedure, shortened: as §1

K. pneumoniae = assay: Broth dilution MIC determination (CLSI) against K. pneumoniae strains; format: cell-based; conditions: for MIC: Klebsiella pneumoniae
Procedure, shortened: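 CLSI broth-dilution MICs across a panel including multidrug- and macrolide-resistant strains, with azithromycin and solithromycin as control compounds.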

S. aureus = assay: Broth dilution MIC determination (CLSI) against S. aureus strains; format: cell-based; conditions: for MIC: Staphylococcus aureus
Procedure, shortened: as §1

S. pyogenes = assay: Broth dilution MIC determination (CLSI) against S. pyogenes strains; format: cell-based; conditions: for MIC: Streptococcus pyogenes
Procedure, shortened: as §1

S. pneumoniae = assay: Broth dilution MIC determination (CLSI) against S. pneumoniae strains; format: cell-based; conditions: for MIC: Streptococcus pneumoniae
Procedure, shortened: as §1

A. baumannii = assay: Broth dilution MIC determination (CLSI) against A. baumannii strains; format: cell-based; conditions: for MIC: Acinetobacter baumannii
Procedure, shortened: as §1

E. faecalis = assay: Broth dilution MIC determination (CLSI) against E. faecalis strains; format: cell-based; conditions: for MIC: Enterococcus faecalis
Procedure, shortened: as §1

**Q.** With `C=CCOC(=O)NC[C@@H]1C[C@H](N(C)C)[C@@H](OC(=O)OC)[C@H](O[C@@H]2[C@@H](C)C(=O)[C@@H](C)C(=O)O[C@H](CC)[C@@]3(C)OC(=O)N(CCCCN=[N+]=[N-])[C@@H]3[C@@H](C)NC[C@H](C)C[C@@]2(C)OC)O1` as the compound, how does the ring closure, yield of all isomers [1] read?
**A.** 70%

**Q.** What does the source list for `CCC1OC(=O)C(C)C(=O)C(C)C(OC2OC(Cn3cc(-c4cccc(N)n4)nn3)CC(N(C)C)C2O)C(C)(OC)CC(C)CNC(C)C2N(CCCCn3cc(-c4cccc(N)c4)nn3)C(=O)OC12C` (centres unmarked) [FSM-22372]?
**A.** MIC P. aeruginosa ATCC27853 (P. aeruginosa; ATCC27853): >32 µg/mL; MIC P. aeruginosa HPA101-1477 (P. aeruginosa): >32 µg/mL; MIC H. influenzae ATCC49247 (H. influenzae): 16 µg/mL (≈ 16.2 µM); MIC H. influenzae erythro > 4, azithro 1 (H. influenzae; erythro > 4, azithro 1): 16 µg/mL (≈ 16.2 µM); MIC E. coli ATCC25922 (E. coli): >32 µg/mL; MIC E. coli CTX-M-14 (E. coli): >32 µg/mL; MIC E. coli NDM-1 (E. coli): >32 µg/mL; MIC E. coli TEM-1 (E. coli): >32 µg/mL; MIC K. pneumoniae ATCC10031 (K. pneumoniae): >32 µg/mL; MIC K. pneumoniae KPC-2 (K. pneumoniae; KPC-2): >32 µg/mL; MIC K. pneumoniae SHV-12 (K. pneumoniae; SHV-12): >32 µg/mL; MIC K. pneumoniae TEM-10 (K. pneumoniae; TEM-10): >32 µg/mL; MIC S. aureus ATCC29213 (S. aureus): >32 µg/mL; MIC S. aureus MRSA: USA100 (S. aureus): >32 µg/mL; MIC S. aureus MRSA: USA300 (S. aureus): >32 µg/mL; MIC S. aureus USA600, GISA (S. aureus): >32 µg/mL; MIC S. aureus erm A genotype (S. aureus): >32 µg/mL; MIC S. pyogenes ATCC19615 (S. pyogenes): <0.03125 µg/mL; MIC S. pyogenes macrolide-resistant (S. pyogenes; macrolide-resistant): 8 µg/mL (≈ 8.1 µM); MIC S. pneumoniae ATCC49619 (S. pneumoniae): <0.03125 µg/mL; MIC S. pneumoniae erm B + mef A genotype (S. pneumoniae; erm B + mef A genotype): >32 µg/mL; MIC S. pneumoniae erm B + tet(M, O) genotype (S. pneumoniae; erm B + tet(M, O) genotype): <0.03125 µg/mL; MIC A. baumannii ATCC19606 (A. baumannii): >32 µg/mL; MIC A. baumannii IMP-4 (A. baumannii; IMP-4): >32 µg/mL; MIC A. baumannii chromosomal class C (A. baumannii; chromosomal class C): >32 µg/mL; MIC A. baumannii imipenem-resistant (A. baumannii; imipenem-resistant): >32 µg/mL; MIC E. faecalis ATCC29212 (E. faecalis): 16 µg/mL (≈ 16.2 µM); MIC E. faecalis Vancomycin-resistant (E. faecalis; Vancomycin-resistant): >32 µg/mL

**Q.** Which results are given for `CCC1OC(=O)C(C)C(=O)C(C)C(OC2OC(Cn3cc(-c4cnc(N)s4)nn3)CC(N(C)C)C2O)C(C)(OC)CC(C)CNC(C)C2N(CCCCn3cc(-c4cccc(N)c4)nn3)C(=O)OC12C` (centres unmarked) [FSM-22373]?
**A.** MIC P. aeruginosa ATCC27853 (P. aeruginosa; ATCC27853): >32 µg/mL; MIC P. aeruginosa HPA101-1477 (P. aeruginosa): >32 µg/mL; MIC H. influenzae ATCC49247 (H. influenzae): >32 µg/mL; MIC H. influenzae erythro > 4, azithro 1 (H. influenzae; erythro > 4, azithro 1): 16 µg/mL (≈ 16.1 µM); MIC E. coli ATCC25922 (E. coli): >32 µg/mL; MIC E. coli CTX-M-14 (E. coli): >32 µg/mL; MIC E. coli NDM-1 (E. coli): >32 µg/mL; MIC E. coli TEM-1 (E. coli): >32 µg/mL; MIC K. pneumoniae ATCC10031 (K. pneumoniae): >32 µg/mL; MIC K. pneumoniae KPC-2 (K. pneumoniae; KPC-2): >32 µg/mL; MIC K. pneumoniae SHV-12 (K. pneumoniae; SHV-12): >32 µg/mL; MIC K. pneumoniae TEM-10 (K. pneumoniae; TEM-10): 32 µg/mL (≈ 32.2 µM); MIC S. aureus ATCC29213 (S. aureus): >32 µg/mL; MIC S. aureus MRSA: USA100 (S. aureus): >32 µg/mL; MIC S. aureus MRSA: USA300 (S. aureus): >32 µg/mL; MIC S. aureus USA600, GISA (S. aureus): >32 µg/mL; MIC S. aureus erm A genotype (S. aureus): >32 µg/mL; MIC S. pyogenes ATCC19615 (S. pyogenes): 8 µg/mL (≈ 8.05 µM); MIC S. pyogenes macrolide-resistant (S. pyogenes; macrolide-resistant): >32 µg/mL; MIC S. pneumoniae ATCC49619 (S. pneumoniae): <0.03125 µg/mL; MIC S. pneumoniae erm B + mef A genotype (S. pneumoniae; erm B + mef A genotype): 32 µg/mL; MIC S. pneumoniae erm B + tet(M, O) genotype (S. pneumoniae; erm B + tet(M, O) genotype): <0.03125 µg/mL; MIC A. baumannii ATCC19606 (A. baumannii): >32 µg/mL; MIC A. baumannii IMP-4 (A. baumannii; IMP-4): >32 µg/mL; MIC A. baumannii chromosomal class C (A. baumannii; chromosomal class C): >32 µg/mL; MIC A. baumannii imipenem-resistant (A. baumannii; imipenem-resistant): >32 µg/mL; MIC E. faecalis ATCC29212 (E. faecalis): 32 µg/mL (≈ 32.2 µM); MIC E. faecalis Vancomycin-resistant (E. faecalis; Vancomycin-resistant): >32 µg/mL

**Q.** Which results are given for `CC[C@H]1OC(=O)[C@@](C)(F)C(=O)[C@H](C)[C@@H](O[C@@H]2O[C@H](C)C[C@H](N(C)C)[C@H]2O)[C@](C)(OC)C[C@@H](C)C(=O)[C@H](C)[C@H]2N(CCCCn3cc(-c4cccc(N)c4)nn3)C(=O)O[C@]12C` [Solithromycin, solithromycin, reference compound]?
**A.** MIC (P. aeruginosa; ATCC27853, read-out: MIC P. aeruginosa ATCC27853): > 32 µg/mL; MIC (P. aeruginosa; read-out: MIC P. aeruginosa HPA101-1477): > 32 µg/mL; MIC (H. influenzae; ATCC49247, ATCC49247, read-out: MIC H. influenzae ATCC49247): 4 µg/mL (≈ 4.73 µM); MIC (H. influenzae; erythro > 4, azithro 1, read-out: MIC H. influenzae erythro > 4, azithro 1): 2 µg/mL (≈ 2.37 µM); MIC (E. coli; ATCC25922, ATCC25922, read-out: MIC E. coli ATCC25922): 32 µg/mL (≈ 37.9 µM); MIC (E. coli; read-out: MIC E. coli CTX-M-14, CTX-M-14): > 32 µg/mL; MIC (E. coli; read-out: MIC E. coli NDM-1, NDM-1): > 32 µg/mL; MIC (E. coli; read-out: MIC E. coli TEM-1, TEM-1): 32 µg/mL (≈ 37.9 µM); MIC (K. pneumoniae; ATCC10031, ATCC10031, read-out: MIC K. pneumoniae ATCC10031): 8 µg/mL (≈ 9.47 µM); MIC (K. pneumoniae; KPC-2, read-out: MIC K. pneumoniae KPC-2): > 32 µg/mL; MIC (K. pneumoniae; SHV-12, read-out: MIC K. pneumoniae SHV-12): > 32 µg/mL; MIC (K. pneumoniae; TEM-10, read-out: MIC K. pneumoniae TEM-10): > 32 µg/mL; MIC (S. aureus; ATCC29213, ATCC29213, read-out: MIC S. aureus ATCC29213): 0.125 µg/mL (≈ 0.148 µM); MIC (S. aureus; MRSA / USA100, MRSA: USA100, read-out: MIC S. aureus MRSA: USA100): > 32 µg/mL; MIC (S. aureus; MRSA / USA300, MRSA: USA300, read-out: MIC S. aureus MRSA: USA300): 1 µg/mL (≈ 1.18 µM); MIC (S. aureus; USA600, USA600, GISA, read-out: MIC S. aureus USA600, GISA): > 32 µg/mL; MIC (S. aureus; read-out: MIC S. aureus erm A genotype): > 32 µg/mL; MIC (S. pyogenes; ATCC19615, ATCC19615, read-out: MIC S. pyogenes ATCC19615): < 0.0312 µg/mL; MIC (S. pyogenes; macrolide-resistant, read-out: MIC S. pyogenes macrolide-resistant): 0.0625 µg/mL (≈ 0.074 µM); MIC (S. pneumoniae; ATCC49619, ATCC49619, read-out: MIC S. pneumoniae ATCC49619): < 0.0312 µg/mL; MIC (S. pneumoniae; erm B + mef A genotype, read-out: MIC S. pneumoniae erm B + mef A genotype): 0.25 µg/mL; MIC (S. pneumoniae; erm B + tet(M, O) genotype, read-out: MIC S. pneumoniae erm B + tet(M, O) genotype): < 0.0312 µg/mL; MIC (S. pneumoniae; read-out: MIC S. pneumoniae mef A genotype, mef A genotype): 0.125 µg/mL (≈ 0.148 µM); MIC (A. baumannii; ATCC19606, ATCC19606, read-out: MIC A. baumannii ATCC19606): 8 µg/mL (≈ 9.47 µM); MIC (A. baumannii; IMP-4, read-out: MIC A. baumannii IMP-4): > 32 µg/mL; MIC (A. baumannii; chromosomal class C, read-out: MIC A. baumannii chromosomal class C): 8 µg/mL (≈ 9.47 µM); MIC (A. baumannii; imipenem-resistant, read-out: MIC A. baumannii imipenem-resistant): 4 µg/mL (≈ 4.73 µM); MIC (E. faecalis; ATCC29212, ATCC29212, read-out: MIC E. faecalis ATCC29212): < 0.0312 µg/mL; MIC (E. faecalis; Vancomycin-resistant, read-out: MIC E. faecalis Vancomycin-resistant): 32 µg/mL (≈ 37.9 µM)
